Measured values: patent US4767720A, “Antidigoxin antibodies” (HSC Research Development Corporation, priority 1985, dated 1988)
“Also recorded” adds a separate entry of the source.

Tests used:
[1] = tested on: antibodies raised against ozonized digoxin-BSA; format: binding, rabbit; details: for competition for 3H-digoxin binding / cross reaction with the new antibody: 3H-digoxin RIA, FIG. 7a and 7b; for cross-reactivity index: calculated from the molar concentration required to reduce the 3H-digoxin binding by 50%; for Digoxin apparent value measured by [3H]digoxin RIA: metabolite alone at the actual concentration of the line, actual digoxin 0
Procedure: The ^3 H-digoxin radioimmunoassay method was adapted from that previously described in Cerceo E. and Elloso CA (1972) Factors Affecting the Radioimmunoassay of Digoxin, Clin. Chem. 18, 539-542. Briefly, tubes containing 0-30 ng ^3 H-digoxin (3000 dpm) in PBS were incubated at room temperature for 15 mins in the presence of 1/20 diluted antidigoxin serum. Ice cold dextran coated charcoal was added and incubated at 4° C. for 10 mins. This mixture was centrifuged and the ^3 H-digoxin remaining in the supernate was counted in a liquid scintillation spectrometer. Controls in the absence of serum and for non-immune serum were performed in parallel.
The degree of cross reactivity of the digoxin metabolites was monitored using the ^3 H-digoxin radioimmunoassay.

[2] = tested on: antibodies generated against periodate-oxidized digoxin-BSA conjugate; format: binding; details: metabolite alone at the actual concentration of the line, actual digoxin 0
Source text: A comparison was made between the antiserum of Example 4 and the commercially available antidigoxin serum using FPIA (fluorescence polarization immuno assay) to measure the digoxin concentration for solutions containing known levels of the digoxin metabolites as identified in the following Table 3.

[3] = tested on: antidigoxin antibody raised against a bovine serum albumin-digoxin conjugate immunogen; details: background statement on prior-art antibodies; cited from earlier work
[4] = tested on: commercial antidigoxin antibodies raised against BSA periodate conjugated digoxin; experiment: 125I-digoxin RIA using commercial antidigoxin antibodies (whole serum or affinity purified); format: binding; details: for Concentration Measured by RIA Using Affinity Purified Antibody: antibody affinity purified from the same immune serum; for Concentration Measured by RIA Using whole Serum: commercial antidigoxin antibodies, true concentration of antigen given
Procedure: Antidigoxin antibodies raised against BSA periodate conjugated digoxin were purchased from Antibodies Incorporated (Davis, Calif.) and Wien Laboratories (Succasunna, N.J.). Antidigoxin activity was determined using the ^125 I-digoxin radioimmune assay as previously described. Soldin, S; Papanastasion-Diamand, A; Heyes, J;, Lingwood C. A. and Olley, P. (1984) Are Immunoassays for Digoxin Reliable? Clin. Biochem. 17, 317-320. The immune serum was precipitated with 40% ammonium sulfate. The precipitate was redissolved and dialysed against phosphate buffered saline pH 7.4 (PBS). Antidigoxin antibodies were further purified by immunoaffinity chromatography. Digoxin was covalently linked to agarose by use of a photoactive heterobifunctional crosslinking agent as described in Lingwood, C. A. (1984) Production of Glycolipid Affinity Matrices by Use of Heterobifunctional Crosslinking Agents, J. Lipid Res. 25, 1010-1012. Amino hexyl agarose was treated with 2 mM hydroxysuccinimidyl azidobenzoate in the dark for 1 hour at room temperature. The beads were washed with water and 2 mg ^3 H-digoxin (1 mg/ml enthanol/water 1:1) was added. The beads were rotoevaporated to dryness when the digoxin was absorbed onto the beads. The dry beads were then irradiated for 2 min/1 cm from a Mineralight II UV source with stirring, when the digoxin is covalently attached to the agarose beads. The matrix was washed with 100 column volumes 50% ethanol and 50 column volumes water. The wash fractions were concentrated and unbound ^3 H-digoxin was measured. The amount of digoxin coupled/ml agarose was calculated (0.2 μmoles/ml beads).
The immunoglobulin fraction from 1 ml immune serum was applied and the digoxin column was washed with PBS. Antidigoxin activity was measured using the automated ^125 I-RIA method. […] Specific antibodies were eluted by addition of 10 ml 1M KI followed by 10 ml 1M KSCN. The eluted fractions were dialysed, concentrated vs sucrose, dialysed and used in the RIA.
Cross-reactivity of commercial antidigoxin antibodies towards the digoxin metabolites in which one, two and three sugars have been removed (digoxigenin bisdigitoxoside, monodigitoxoside and […] respectively) was measured. […] Purification of the antidigoxin antibodies by affinity chromatography considerably reduces this cross reactivity such that the metabolites are now recognized on a one to one basis relative to digoxin.

Row | Structure (SMILES) | competition for 3H-digoxin binding / cross reaction with the new antibody [1] | cross-reactivity index [1] | Digoxin apparent value measured by [3H]digoxin RIA [1] | Digoxin apparent value measured by FPIA [2] | cross-reactivity with the antibodies [3] | Concentration Measured by RIA Using Affinity Purified Antibody [4] | Concentration Measured by RIA Using whole Serum [4]
1 | CC1OC(OC2C(O)CC(OC3C(O)CC(OC4CCC5(C)C(CCC6C5CC(O)C5(C)C(C7=CC(=O)OC7)CCC65O)C4)OC3C)OC2C)CC(O)C1O (stereo not shown) [digoxin, Digoxin] | effectively competed out | – | – | – | – | – | –
2 | C[C@H]1O[C@@H](O[C@H]2[C@@H](O)C[C@H](O[C@H]3[C@@H](O)C[C@H](O[C@H]4CC[C@@]5(C)[C@H](CC[C@@H]6[C@@H]5CC[C@]5(C)[C@@H](C7=CC(=O)OC7)CC[C@]65O)C4)O[C@@H]3C)O[C@@H]2C)C[C@H](O)[C@@H]1O [Digitoxin] | considerable reduced reactivity | 11% | 0 nmol/L | 9.6 nmol/L | – | – | –
3 | C[C@H]1O[C@@H](O[C@H]2CC[C@@]3(C)[C@H](CC[C@@H]4[C@@H]3C[C@@H](O)[C@]3(C)[C@@H](C5=CC(=O)OC5)CC[C@]43O)C2)C[C@H](O)[C@@H]1O [Digoxigenin monodigitoxide] | – | 3.7% | 0.7 nmol/L | 10 nmol/L | react with the antibodies | 5.0 nmol/L | 24.3 nmol/L
4 | C[C@H]1O[C@@H](O[C@H]2[C@@H](O)C[C@H](O[C@H]3CC[C@@]4(C)[C@H](CC[C@@H]5[C@@H]4C[C@@H](O)[C@]4(C)[C@@H](C6=CC(=O)OC6)CC[C@]54O)C3)O[C@@H]2C)C[C@H](O)[C@@H]1O [Digoxigenin bisdigitoxide, digoxigenin bisdigitoxide] | – | 14.6% | 0.8 nmol/L | 6.05 nmol/L | react with the antibodies | 6.3 nmol/L | 25.2 nmol/L
5 | CC1OC(OC2C(O)CC(OC3C(O)CC(OC4CCC5(C)C(CCC6C5CC(O)C5(C)C(C7COC(=O)C7)CCC65O)C4)OC3C)OC2C)CC(O)C1O (stereo not shown) [dihydrodigoxin] | – | – | – | – | little or no cross-reactivity | – | –
6 | C[C@]12CC[C@H](O)C[C@H]1CC[C@@H]1[C@@H]2C[C@@H](O)[C@]2(C)[C@@H](C3COC(=O)C3)CC[C@]12O (stereo partly shown) [Dihydrodigoxigenin] | – | – | – | – | little or no cross-reactivity | 0.8 nmol/L | 0.8 nmol/L
7 | C[C@]12CC[C@H](O)C[C@H]1CC[C@@H]1[C@@H]2C[C@@H](O)[C@]2(C)[C@@H](C3=CC(=O)OC3)CC[C@]12O [Digoxigenin] | ineffective antigen | – | 0 nmol/L | 13.8 nmol/L | react with the antibodies | 6.9 nmol/L | 25.2 nmol/L
8 | C[C@@H](O)[C@@H](O)[C@@H](O)CC=O [digitoxose] | does not compete for digoxin binding; also recorded: does not cross react at all | – | – | – | – | – | –
